This is an account of results in patent US20230225313A1, “Methods and Compositions for Use in Glued-Wood Products” (ARXADA AG, priority 2020, published 2023).

Molecules are shown by their SMILES. Read-outs that look alike come from different tables or passages of the source.

A short description of the data set: Thermogravimetric analysis (TGA), degradation temperature. The format is physicochemical. How it is done: The choice of suitable thermoplastics must also account for the biocide degradation temperature. The temperature of the melted thermoplastic at the point of biocide addition can be any temperature up to the biocide degradation temperature, preferably at least 20° C., and more preferably at least 40° C. below the biocide degradation temperature. Biocide degradation temperatures are most conveniently determined by thermogravimetric analysis (TGA). Unless hot melt mixing is to be performed in an inert atmosphere, TGA should be performed in air to account for oxidative degradation. TGA can be performed according to ISO 11358-1:2014.
Imidacloprid has a degradation temperature of about 274° C. (onset of weight loss, see the thermogravimetric analysis data in FIG. 1). Accordingly, the mixing of imidacloprid with any thermoplastic by hot melt extrusion (HME) should be performed at temperatures less than about 270° C.
Degradation temperatures were established by thermogravimetric analysis (TGA, see FIG. 1) with the following results: bifenthrin 195° C., triadimefon 195° C., and cyproconazole 205° C. These temperatures indicate upper limits for processing these biocides by HME. The melting points for these biocides are: bifenthrin 57-64.6° C., triadimefon 82.3° C., and cyproconazole 106.2-106.9° C.).
“Friable biocide-composites” comprising a biocide, a thermoplastic and an embrittling agent were formed by HME along with a “solidified biocide-composite” comprising a biocide and an embrittling agent, i.e. no thermoplastic. The organoclay Tixogel MP 100 was used as the embrittling agent. Tixogel MP 100 has a thermal degradation temperature of 222° C. measured as onset of weight loss (FIG. 7, note a slight initial loss of moisture). This temperature represents a practical upper limit for HME when using Tixogel MP 100.

`Cc1c(COC(=O)[C@@H]2[C@H](/C=C(\Cl)C(F)(F)F)C2(C)C)cccc1-c1ccccc1` (relative stereo) [bifenthrin, (2-methyl[1,1′-biphenyl]-3-yl)methyl (1R,3R)-rel-3-[(1Z)-2-chloro-3,3,3-trifluoro-1-propen-1-yl]-2,2-dimethylcyclopropanecarboxylate] came in with a Degradation temperature (TGA, onset of weight loss) of 195 °C. In the case of `O=[N+]([O-])NC1=NCCN1Cc1ccc(Cl)nc1` [Imidacloprid, (2E)-1-[(6-chloro-3-pyridinyl)methyl]-N-nitro-2-imidazolidinimin], the Degradation temperature result was “about 274 °C”. Molecule `CC(C1CC1)C(O)(Cn1cncn1)c1ccc(Cl)cc1` (stereo not drawn) [cyproconazole, α-(4-chlorophenyl)-α-(1-cyclopropylethyl)-1H-1,2,4-triazole-1-ethanol] came in with a Degradation temperature of 205 °C.

With `CC(C)(C)C(=O)C(Oc1ccc(Cl)cc1)n1cncn1` (stereo not shown) [triadimefon, 1-(4-chlorophenoxy)-3,3-dimethyl-1-(1H-1,2,4-triazol-1-yl)-2-butanone], the Degradation temperature (TGA, onset of weight loss) amounted to 195 °C.
